Columns and labels:
[1] = Inhibition of hedgehog signaling pathway in human HaCaT cells assessed as inhibition of GLI1-mediated transcriptional activity; type: cell-based
DU-145 = assay: Cytotoxicity against human DU145 cells after 24 hrs; type: functional, cell-based; conditions: DU-145, 24 h
[2] = Cytotoxicity against mouse C3H10T1/2 cells after 24 hrs; type: cell-based; conditions: C3H 10T1/2, 24 h
PANC-1 = assay: Cytotoxicity against human PANC1 cells after 24 hrs; type: functional, cell-based; conditions: PANC-1, 24 h

Compound: COC1NC(=O)c2c1c1c3ccccc3[nH]c1c1[nH]c3cc(O)ccc3c21 (centres undefined)
- IC50 [1]: 4.6 µM
- IC50 (DU-145): 4.2 µM
- IC50 [2]: > 14 µM
- IC50 (PANC-1): 5 µM
